According to US9469608B2, “Thrombin inhibitors” (Merck Sharp & Dohme Corp., priority 2012, dated 2016):
Like-named read-outs stand apart in the source and are kept apart here.

Molecular target: human α-thrombin (Homo sapiens (Human), UniProt P00734)
Assay: In vitro assay for determining proteinase inhibition (thrombin Ki)
Format: biochemical
Method: NMR determinations were made using 400 MHz field strength. Ki data was obtained according to the procedure described in Lewis, et al. Thromb. […] Reactions sensitive to moisture or air were performed under nitrogen or argon using anhydrous solvents and reagents. […] Typically, the analytical LC-MS system used consisted of a Waters ZQ platform with electrospray ionization in positive ion detection mode with an Agilent 1100 series HPLC with autosampler. The column was usually a Water Xterra MS C18, 3.0×50 mm, 5 μm. The flow rate was 1 mL/min, and the injection volume was 10 μL. UV detection was in the range 210-400 nm. […] Preparative HPLC purifications were usually performed using a mass spectrometry directed system. […] The mobile phases consisted of mixtures of acetonitrile (10-100%) in water containing 0.1% TFA. Flow rates were maintained at 50 mL/min, the injection volume was 1800 μL, and the UV detection range was 210-400 nm. Mobile phase gradients were optimized for the individual compounds. Reactions performed using microwave irradiation were normally carried out using an Emrys Optimizer manufactured by Personal Chemistry, or an Initiator manufactured by Biotage. Concentration of solutions was carried out on a rotary evaporator under reduced pressure. Flash chromatography was usually performed using a Biotage Flash Chromatography apparatus (Dyax Corp.) on silica gel ([…], 60 Å pore size) in pre-packed cartridges of the size noted. ^1H NMR spectra were acquired at 500 MHz spectrometers in CDCl3 solutions unless otherwise noted. Chemical shifts were reported in parts per million (ppm). Tetramethylsilane (TMS) was used as internal reference in CD3Cl solutions, and residual CH3OH peak or TMS was used as internal reference in CD3OD solutions. Coupling constants (J) were reported in hertz (Hz). Chiral analytical chromatography was performed on one of Chiralpak AS, Chiralpak AD, Chiralcel OD, Chiralcel IA, or Chiralcel OJ columns (250×4.6 mm) (Daicel Chemical Industries, Ltd.) with noted percentage of either ethanol in hexane (% Et/Hex) or isopropanol in heptane (% IPA/Hep) as isocratic solvent systems. Chiral preparative chromatography was conducted on one of Chiralpak AS, Chiralpak AD, Chiralcel OD, Ciralcel IA, or Chiralcel OJ columns (20×250 mm) (Daicel Chemical Industries, Ltd.) with desired isocratic solvent systems identified on chiral analytical chromatography or by supercritical fluid (SFC) conditions. Celite® (Fluka) diatomite is diatomaceous earth, and can be referred to as “celite”.
Relevant in vitro assays are referenced in Morrissette, et al., Bioorg. […] The assays were carried out at 25° C. in 0.05 M TRIS buffer pH 7.4, 0.15 M NaCl, 0.1% PEG. Trypsin assays also contained 1 mM CaC12.
Concentrations of stock solutions of Z-GPR-afc were determined from measurements of absorbance at 380 nm of the 7-amino-4-trifluoromethyl coumarin produced upon complete hydrolysis of an aliquot of the stock solution by thrombin.
Activity assays were performed by diluting a stock solution of substrate at least tenfold to a final concentration ≦0.1 Km into a solution containing enzyme or enzyme equilibrated with inhibitor. Times required to achieve equilibration between enzyme and inhibitor were determined in control experiments. Initial velocities of product formation in the absence (Vo) or presence of inhibitor (Vi) were measured. Assuming competitive inhibition, and that unity is negligible compared Km/[S], [I]/e, and [I]/e (where [S], [I], and e respectively represent the total concentrations, of substrate, inhibitor and enzyme), the equilibrium constant (Ki) for dissociation of the inhibitor from the enzyme can be obtained from the dependence of Vo/Vi on [I] shown in the following equation.

[1] = 25° C., 0.05 M TRIS buffer pH 7.4, 0.15 M NaCl, 0.1% PEG, competitive inhibition assumed

Structure (SMILES)	Ki [1] [nM]	Ki [nM]
NCc1ccc(Cl)cc1CNC(=O)[C@@H]1CCCN1C(=O)C1NCc2ccccc21 (single isomer, unassigned) [Compound 23-4a, bis(2,2,2-trifluoroacetate)]	77	
CC(C)(C)[C@@H](CCO)C(=O)N1CCC[C@H]1C(=O)NCc1cc(Cl)ccc1CN [Compound 1-12, (S)—N-[2-(Aminomethyl)-5-chlorobenzyl]-1-[(R)-2-(2-hydroxyethyl)-3,3-dimethylbutanoyl]pyrrolidine-2-carboxamide-2,2,2-trifluoroacetate]	25	
CCOC(=O)c1ccc(C(=O)N2CCC[C@H]2C(=O)NCc2cc(Cl)ccc2CN)[nH]1 [Compound 3-5, (S)-Ethyl-5-[2-{(2-(aminomethyl)-5-chlorobenzyl)carbamoyl}-pyrrolidine-1-carbonyl]-1H-pyrrole-2-carboxylate-2,2,2-trifluoroacetate]	47	
NCc1ccc(Cl)cc1CNC(=O)[C@@H]1CCCN1C(=O)c1ccc(C(F)(F)F)[nH]1 [Compound 4-5, (S)—N-{2-(Aminomethyl)-5-chlorobenzyl}-1-{5-(trifluoromethyl)-1H-pyrrole-2-carbonyl}pyrrolidine-2-carboxamide]	27	
NCc1ccc(Cl)cc1CNC(=O)[C@@H]1CCCN1C(=O)c1cc(C(O)c2ccncc2)c[nH]1 (stereo partly drawn) [Compound 6-2, (2S)-N-{2-(Aminomethyl)-5-chlorobenzyl}-1-[4-{hydroxyl(pyridine-4-yl)methyl}-1H-pyrrole-2-carbonyl]pyrrolidine-2-carboxamide-bis(2,2,2-trifluoroacetate)]	21	
NCc1ccc(Cl)cc1CNC(=O)[C@@H]1CCCN1C(=O)c1cc(-c2ccncc2)c[nH]1 [Compound 13-10, (S)—N-{2-(Aminomethyl)-5-chlorobenzyl)-1-{4-(pyridin-4-yl)-1H-pyrrole-2-carbonyl) pyrrolidine-2-carboxamide-bis(2,2,2-trifluoroacetate)]		3.4
NCc1ccc(Cl)cc1CNC(=O)[C@@H]1CCCN1C(=O)c1cc(-c2cccnc2)c[nH]1 [Compound 14-5, (S)—N-{2-(Aminomethyl)-5-chlorobenzyl}-1-{4-(pyridin-3-yl)-1H-pyrrole-2-carbonyl}pyrrolidine-2-carboxamide bis(2,2,2-trifluoroacetate)]	22	
NCc1ccc(Cl)cc1CNC(=O)[C@@H]1CCCN1C(=O)c1cc(-c2ccccn2)c[nH]1 [Compound 15-8, (S)—N-[{2-(Aminomethyl)-5-chlorobenzyl}-1-{4-(pyridin-2-yl)-1H-pyrrole-2-carbonyl}]pyrrolidine-2-carboxamide bis (2,2,2-trifluoroacetate)]	22	
CC(C)(C)[C@@H](O)C(=O)N1CCC[C@H]1C(=O)NCc1cc(Cl)ccc1CO [Compound 17-5, (S)—N-{5-Chloro-2-(hydroxymethyl)benzyl}-1-{(R)-2-hydroxy-3,3-dimethylbutanoyl}pyrrolidine-2-carboxamide]	3500	
NCc1ccc(Cl)cc1CNC(=O)[C@@H]1CCCN1C(=O)C1(O)CCc2ncccc21 (stereo partly drawn) [Compound 19-4, (2S)-N-{2-(Aminomethyl)-5-chlorobenzyl}-1-(5-hydroxy-6,7-dihydro-5H-cyclopenta[b]pyridine-5-carbonyl)pyrrolidine-2-carboxamide-2,2,2-trifluoroacetate]		49
NCc1ccc(Cl)cc1CNC(=O)[C@@H]1CCCN1C(=O)C1(O)CCc2cccnc21 (stereo partly drawn) [Compound 20-8, (2S)-N-(2-(Aminomethyl)-5-chlorobenzyl)-1-(7-hydroxy-6,7-dihydro-5H-cyclopenta[b]pyridine-7-carbonyl)pyrrolidine-2-carboxamide-bis(2,2,2-trifluoroacetate)]	7.7	
NCc1ccc(Cl)cc1CNC(=O)[C@@H]1CCCN1C(=O)C1c2ccccc2CS1(=O)=O (stereo partly drawn) [Compound 22-10, (2S)-N-{2-(Aminomethyl)-5-chlorobenzyl}-1-(2,2-dioxido-1,3-dihydrobenzo[a]thiophene-1-carbonyl)pyrrolidine-2-carboxamide-2,2,2-trifluoroacetate-2,2,2-trifluoroacetate]	400	
NCc1ccc(Cl)cc1CNC(=O)[C@@H]1CCCN1C(=O)C1CNc2ccccc21 (stereo partly drawn) [Compound 25-5, (2S)-N-{2-(Aminomethyl)-5-chlorobenzyl}-1-(indoline-3-carbonyl)pyrrolidine-2-carboxamide bis(2,2,2-trifluoroacetate)]		59
NCc1ccc(Cl)cc1CNC(=O)[C@@H]1CCN1C(=O)C1(O)CCc2ncccc21 (stereo partly drawn) [Compound 26-12, (2S)-N-{2-(Aminomethyl)-5-chlorobenzyl}-1-(5-hydroxy-6,7-dihydro-5H-cyclopenta[b]pyridine-5-carbonyl)azetidine-2-carboxamide bis(2,2,2-trifluoroacetate)]		325
NCc1ccc(Cl)cc1CNC(=O)[C@@H]1CCCN1C(=O)C1(O)CCc2cnccc21 (stereo partly drawn) [Compound 27-9]	20	
NCc1ccc(Cl)cc1CNC(=O)[C@@H]1CCCN1C(=O)C1(O)CCc2ccncc21 (stereo partly drawn) [Compound 28-6, (2S)-N-{2-(aminomethyl)-5-chlorobenzyl}-1-(7-hydroxy-6,7-dihydro-5H-cyclopenta[c]pyridine-7-carbonyl)pyrrolidine-2-carboxamide bis (2,2,2-trifluoroacetate)]	16	

Now from value to compound, other results behind:

Ki [1] [nM]	Structure (SMILES)	Ki [nM]
1.1	NCc1ccc(Cl)cc1CNC(=O)[C@@H]1CCCN1C(=O)C1NCc2ccccc21 (single isomer, unassigned) [Compound 23-4b, bis(2,2,2-trifluoroacetate)]	
17	NCc1ccc(Cl)cc1CNC(=O)[C@@H]1CCCN1C(=O)c1cc(Cc2ccncc2)c[nH]1 [Compound 7-1, (S)—N-{2-(Aminomethyl)-5-chlorobenzyl}-1-{4-(pyridin-4-ylmethyl)-1H-pyrrole-2-carbonyl}pyrrolidine-2-carboxamide-bis(2,2,2-trifluoroacetate)]	
18	NCc1ccc(Cl)cc1CNC(=O)[C@@H]1CCCN1C(=O)c1cc(C(=O)c2cccnc2)c[nH]1 [Compound 8-8, (S)—N-{2-(aminomethyl)-5-chlorobenzyl}-1-(4-nicotinoyl-1H-pyrrole-2-carbonyl)pyrrolidine-2-carboxamide-bis(2,2,2-trifluoro acetate]	
13	NCc1ccc(Cl)cc1CNC(=O)[C@@H]1CCCN1C(=O)c1cc(C(O)c2cccnc2)c[nH]1 (stereo partly drawn) [Compound 9-2, (2S)-N-{2-(Aminomethyl)-5-chlorobenzyl}-1-[4-{hydroxy(pyridine-3-yl)methyl}-1H-pyrrole-2-carbonyl]pyrrolidine-2-carboxamide]	
17	NCc1ccc(Cl)cc1CNC(=O)[C@@H]1CCCN1C(=O)c1cc(C(=O)c2ccccn2)c[nH]1 [Compound 10-7, (S)—N-{2-(Aminomethyl)-5-chlorobenzyl}-1-(4-picolinoyl-1H-pyrrole-2-carbonyl) pyrrolidine-2-carboxamide-bis(2,2,2-trifluoroacetate)]	
9.7	NCc1ccc(Cl)cc1CNC(=O)[C@@H]1CCCN1C(=O)c1cc(C(O)c2ccccn2)c[nH]1 (stereo partly drawn) [Compound 11-2, (2S)-N-{2-(Aminomethyl)-5-chlorobenzyl}-1-[4-{hydroxyl(pyridine-2-yl)methyl}-1H-pyrrole-2-carbonyl]pyrrolidine-2-carboxamide]	
15	NCc1ccc(Cl)cc1CNC(=O)[C@@H]1CCCN1C(=O)C1OCc2ccccc21 (stereo partly drawn) [Compound 21-6, (2S)-N-{2-(Aminomethyl)-5-chlorobenzyl}-1-(1,3-dihydroisobenzofuran-1-carbonyl)pyrrolidine-2-carboxamide-2,2,2-trifluoroacetate]	
9.2	NCc1ccc(Cl)cc1CNC(=O)[C@@H]1CCCN1C(=O)C1COc2ccccc21 (stereo partly drawn) [Compound 24-8, (2S)-N-{2-(Aminomethyl)-5-chlorobenzyl}-1-(2,3-dihydrobenzofuran-3-carbonyl)pyrrolidine-2-carboxamide-2,2,2-trifluoroacetate]	
